Measurements taken from patent US20130310347A1, “MULTI-MODALITY MOLECULAR IMAGING HIGH-THROUGHPUT ASSAY FOR IDENTIFYING HEAT SHOCK PROTEIN 90 (HSP90) INHIBITORS” (The Board of Trustees of the Leland Stanford Junior …, priority 2012, published 2013).

Tests used:
1975 cells = test: Alamar Blue cell proliferation; type: cell-based; conditions: 1975, 24 h
Method: FIG. 6A is a series of graphs illustrating the effect of CP9 on cell proliferation determined by an Alamar Blue assay. The indicated cancer cell lines were treated with different concentrations of CP9 for 24 h prior to incubation with Alamar blue for 4 h. The Hsp90 inhibitors PU-H71 and 17AAG were used as positive controls. Emissions at 570 nm in CP9-treated cells were normalized to that of carrier control-treated cells. Results are expressed as normalized cell proliferation±S.E.M.
CP9 had no effect on proliferation of normal MEFs. Since CP9 led to decrease in phosphorylated Akt (FIGS. 5A and 10A-10C), it was expected to inhibit glucose metabolism through relief of inhibition of glycogen synthase kinase […] (Nair & Olanow (2008) J. Biol. Chem. M707238200; Dandekar et al., (2007) J. Nucl. Med. 48: 602-607).

[1] = tested on: 1975 lung cancer, 2008 ovarian cancer and HT29 colon cancer cells; test: 3H-FDG cell uptake (glucose metabolism); type: cell-based; conditions: 24 h post treatment
Method: (§1) FIG. 6B is a graph illustrating the effect of CP9 on glucose metabolism determined in 1975 lung cancer, 2008 ovarian cancer and HT29 colon cancer cells by ^3H-FDG cell uptake studies 24 h post treatment. Normal MEFs were used as a control. Results were expressed as mean counts/μg protein/initial dose±S.E.M. *, p<0.05 vs. carrier control treated cells.
Inhibition of glucose metabolism by CP9 in cell culture was monitored by cell uptake studies with ^3H-fluoro-deoxyglucose (^3H-FDG) as described in Dandekar et al. ((2007) J. Nucl. Med. 48: 602-607) as shown in FIG. 6B. PU-H71 was used as a positive control.
(§2) To determine the downstream effects of lead compounds on glucose metabolism, 1.5×10^5 293T, 1975 and 2008 and MEFs cells plated in 24-well plate for 24 h, prior to treatment with different concentrations of CP9 for 24 or 48 h and subsequent incubation with 1 μCi of ^3H-FDG in 500 μl of medium for 1 h at 37° C. Cells treated with 2.5 μM of PU-H71 served as a positive control. The total counts in each sample were normalized to that of the dose added to each well and to the amount of protein, and expressed as mean counts/dose/μg protein±S.E.M. Likewise, the effect of CP9 on cell proliferation was determined using 1 μCi of ^3H-FLT per well after 2 h of incubation at 37° C.

normal MEF cells = test: 3H-FDG cell uptake (glucose metabolism); type: cell-based, mouse; conditions: 24 h post treatment
Method: as §1
To determine the specificity of CP9 in inhibition of glucose metabolism, normal MEF cells were used as a control.
as §2

pAkt/total Akt and Raf-1 = test: Western blotting of client proteins in 293T-FG cells (CP9 analogues); type: cell-based, human; conditions: different concentrations
Method: Cells treated with PU-H71 and 17-AAG (2.5 μM) served as positive controls. α-Tubulin was used as the loading control.
To determine if the reduction in IC50 for Hsp90(α/β)/p23 interactions also led to improved efficacy of A17 as an Hsp90 inhibitor, 293T-FG cells were treated with different concentrations of CP9 and A17. PU-H71 and 17AAG were used as positive controls. The expression of pAkt/total Akt and Raf-1 was determined by western blotting. […] Since A17 has a lower logP value (partition coefficient) than CP9 (2.8 versus 4.1), it may be more hydrophilic, have less non-specific binding to serum proteins and thus better bioavailability in tumors.
CP9 (0.3-10 μM), 17-AAG (10 μM) and PU-H71 (5 μM) were used as positive controls in triplicate wells. The efficacy of the analogues in disruption of Hsp90(α/β)/p23 and cell proliferation were monitored by RL imaging (2 h post upon addition of ENDUREN® at 30 μM final concentration) followed by FL imaging (10 mins post addition of D-Luc at 0.225 mg/ml final concentration) using a cooled CCD camera (1 min and 10 sec for RL and FL imaging, respectively). RL signals were normalized to that of FL signals to account for the effect of the analogues on cell proliferation. […] The effect of the CP9 analogues on degradation of Hsp90 client proteins in 293T cells were also monitored by western blotting as described above.

[2] = logP value (partition coefficient); type: physicochemical

SMILES: Cc1cc(NC(=O)CSc2nc(-c3cccs3)cc(C(F)(F)F)n2)no1 [CP9, N-(5-methylisoxazol-3-yl)-2-(4-(thiophen-2-yl)-6-(trifluoromethyl)pyrimidin-2-ylthio)acetamide]
- inhibition of cell proliferation vs PU-H71 and 17-AAG (1975 cells): more effective than PU-H71 and 17-AAG
- 3H-FDG uptake in the cancer cells [1]: decreased
- 3H-FDG uptake in MEFs (normal MEF cells): without significantly affecting
- degradation of pAkt/total Akt and Raf-1 (pAkt/total Akt and Raf-1): dose-dependent decreases
- logP [2]: 4.1
